Data on 21 molecules can be found in PubChem BioAssay (NCI).

Holding throughout (experiment): DTP human tumour cell line panel, 48 h
Test [1] relates to OVCAR-5 ovarian.
In test [2] the test system is K-562 leukemia.
Test [3] deals with NCI/ADR-RES ovarian.
Test [4] concerns HCC-2998 colon.
For test [5], the system named is SNB-75 CNS.
The test system of test [6] is OVCAR-4 ovarian.
Test [7] deals with HT29 colon.
For test [8], the system named is HOP-62 NSCLC.
Test [9] has as its system A498 renal.
Test [10] deals with CCRF-CEM leukemia.

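Method: 48-hour compound exposure of cells in 96-well plates, five concentrations, linear interpolation of endpoints. The concentration for 50% growth inhibition is given as GI50. TGI marks complete inhibition of growth.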 Some results are limits rather than exact numbers.

For the molecule `O=C1OC(O)[C@@H]2[C@H]1[C@H]1CC[C@@H]2O1` (stereo partly drawn), the GI50 in test [1] is 57.3 µM; in test [2] it was more than 100 µM; in test [3], more than 100 µM; in test [4] it was 2.19 µM; in [5], 45.3 µM; in test [6], more than 100 µM. Also, the GI50 is 4.99 µM in test [7], more than 100 µM in test [8], 7.07 µM in [9] and more than 100 µM in test [10]. Besides, the TGI in [1] is more than 100 µM; in test [2], more than 100 µM; in [3], more than 100 µM; in [4] it was 4.41 µM; in test [5], more than 100 µM; in [6], more than 100 µM. Also, the TGI in test [7] is 32.2 µM; in test [8], more than 100 µM; in test [9] it was 51.9 µM; in test [10], more than 100 µM.

Turning to `Cc1cc(/C=C/c2ccc3cc(N(C)C)ccc3[n+]2C)c(C)n1-c1ccccc1`, the GI50 is 0.688 µM in [1]; 1.67 µM in [3]; 0.203 µM in [4]; 0.211 µM in test [5]; 0.0723 µM in test [6]; 0.133 µM in test [7]. Further, the GI50 in test [8] was 0.191 µM; in [9], 0.286 µM; in test [10] it was 0.218 µM. The TGI in test [1] stood at 12.4 µM; in test [3], 13.4 µM; in [4], 2.64 µM; in test [5], 1.9 µM; in [6], 5.23 µM; in test [7], 2.52 µM. For the same molecule, the figures for the concentration for total growth inhibition (TGI) in test [8], in test [9] and in test [10] were 1.03 µM, 2.23 µM and 2.6 µM, respectively.

On to `N=Nc1c(OC(=O)Nc2cccc(Cl)c2)[nH]c2ccccc12`, for which the TGI was 31.2 µM in [1]; more than 52.8 µM in test [2]; 21.4 µM in test [3]; 17.5 µM in [4]; 17.9 µM in [5]; 19.6 µM in test [6]. In addition, the concentration for total growth inhibition (TGI) is 17.7 µM in test [7], 13.1 µM in test [8], 26.1 µM in test [9] and 21.9 µM in [10].

Turning to `COc1c(Cl)c(=O)oc2ccc(Cl)cc12`, the concentration for total growth inhibition (TGI) in test [1], in test [2], in test [3], in [4], in [5] and in test [6] was more than 100 µM each time. In addition, the concentration for total growth inhibition (TGI) in [7], in test [8], in test [9] and in test [10] was more than 100 µM throughout.

As for `COc1ncnc(NS(=O)(=O)c2ccc(N=C3C(=O)N(CN4CCN(c5c(F)cc6c(=O)c(C(=O)O)cn(C7CC7)c6c5OC)CC4C)c4ccc(Cl)cc43)cc2)c1OC` (stereo not drawn), the GI50 was 19.2 µM in [1]; 20.5 µM in test [2]; 8.76 µM in test [3]; more than 50 µM in test [5]; 37.7 µM in test [6]; 18.4 µM in test [7]. Besides, the values for the GI50 in test [8] and in test [9] were 23.4 µM and 40.8 µM, respectively. Also, the TGI was more than 50 µM in test [1]; more than 50 µM in [2]; 42.1 µM in test [3]; more than 50 µM in [5]; more than 50 µM in [6]; more than 50 µM in test [7]. Also, the TGI in test [8] and in test [9] was more than 50 µM each time.

On to `COc1cc2c3c(n(C)c(=O)c2cc1OC)-c1cc2c(cc1/C3=C\CCCN)OCO2`, for which the GI50 in test [1] is 3.75 µM; in test [2], 1.31 µM; in test [3], 14.5 µM; in test [4], 10.4 µM; in test [5] it was 11.2 µM; in test [6] it was 17.9 µM. Besides, the values for the GI50 in test [7], in test [8] and in [9] were 4.57 µM, 3.64 µM and 2.49 µM, respectively. Besides, the TGI in test [1] was 26.2 µM; in test [2] it was 12 µM; in test [3] it was 74.4 µM; in [4] it was 32.3 µM; in test [5], 31.6 µM; in test [6] it was 52.7 µM. For the same molecule, the figures for the TGI in [7], in [8] and in [9] were more than 100 µM, 26.6 µM and 18.2 µM, respectively.

For the molecule `O=[N+]([O-])C(/C=C(\Cl)n1nnc2ccccc21)=C(/Cl)n1nnc2ccccc21`, the TGI in test [1], in [2], in [3], in [4], in test [6] and in [7] was more than 100 µM in each case. The total growth inhibition concentration (TGI) in test [8], in [9] and in test [10] was more than 100 µM in each case.

Consider `CC[C@H](Nc1ncnc2nc[nH]c12)c1oc2ccccc2c(=O)c1-c1cccc(F)c1`, for which the GI50 in test [1] is 42.5 µM; in [2] it was 17.4 µM; in test [3], 21.3 µM; in test [4], 35.7 µM; in [5], 4.15 µM; in test [6] it was 23.1 µM. Further, the GI50 is 28.3 µM in [7], 33.8 µM in [8] and 23.3 µM in test [10]. For the same molecule, the TGI was more than 100 µM in [1]; more than 100 µM in test [2]; more than 100 µM in test [3]; more than 100 µM in test [4]; 56.1 µM in test [5]; more than 100 µM in [6]. Besides, the concentration for total growth inhibition (TGI) in test [7], in [8] and in [10] was more than 100 µM throughout.

In the case of `COc1cc(NCc2ccc3oc(=O)c(-c4ccccc4)nc3c2)cc(OC)c1OC`, the concentration for total growth inhibition (TGI) in [1], in [2], in test [3], in test [4], in test [5] and in [6] was more than 10 µM in each case. Also, the total growth inhibition concentration (TGI) in test [7], in test [8] and in [10] was more than 10 µM throughout.

Take `COc1cc(C2c3cc4c(cc3OC(C)(O)C2C)OCO4)cc(OC)c1OC` (stereo not drawn): the TGI was more than 100 µM in [1]; 11.9 µM in test [2]; more than 100 µM in test [3]; more than 100 µM in test [4]; more than 100 µM in [7]; more than 100 µM in test [8]. Further, the concentration for total growth inhibition (TGI) in test [9] is more than 100 µM; in test [10] it was 16.6 µM.

Consider `COc1ccc(-c2nnc(COc3ccc(C(=O)/C=C/c4ccco4)cc3)o2)cc1`, for which the GI50 in test [1] is 5.85 µM; in test [2], 2.77 µM; in test [3], 8.62 µM; in [4], 2.32 µM; in test [5] it was 3.04 µM; in test [6] it was 12.8 µM. In addition, the figures for the GI50 in test [7], in [8] and in test [9] were 1.91 µM, 2.5 µM and 11.4 µM, respectively. The total growth inhibition concentration (TGI) in test [1] turned out to be 19.1 µM; in [2], 7.45 µM; in test [3] it was 25 µM; in test [4] it was 5.26 µM; in test [5], 14.5 µM; in test [6], 26.6 µM. In addition, the total growth inhibition concentration (TGI) is 3.61 µM in [7], 7.23 µM in test [8] and 23.6 µM in [9].

Take `Cc1c2c(nn1-c1ccc(S(=O)(=O)/N=C3\SCCC(=O)N3c3ccccc3)cc1)-c1ccccc1CC2`: the GI50 in test [1], in test [2], in [3], in test [4], in test [6] and in [7] was more than 100 µM each time. Further, the GI50 in test [8] was 46.4 µM; in test [10], more than 100 µM. The TGI in test [1], in test [2], in [3], in test [4], in test [6] and in test [7] was more than 100 µM throughout. Further, the concentration for total growth inhibition (TGI) in [8] and in test [10] was more than 100 µM throughout.

`Cc1ccccc1S(=O)(=O)OC1NS(=O)(=O)c2ccccc21` (stereo not drawn): the total growth inhibition concentration (TGI) in test [1], in test [2], in [3], in test [4], in test [5] and in test [6] was more than 100 µM each time. For the same molecule, the total growth inhibition concentration (TGI) in test [7], in [8] and in test [9] was more than 100 µM each time.

As for `CCN(CC)/C(SCc1ccccc1)=C(\C(Cl)=C(Cl)Cl)[N+](=O)[O-]`, the concentration for total growth inhibition (TGI) in test [1] was 41.2 µM; in [2], more than 100 µM; in test [3] it was 38 µM; in test [4], 47.7 µM; in test [6], 44.6 µM; in [7], 81.7 µM. The total growth inhibition concentration (TGI) stood at 45.6 µM in test [8], 26.9 µM in [9] and 52.2 µM in [10].

`Cc1cc(-c2ccc3nc(C4CCOCC4)n(CCOC(F)(F)F)c3c2)cn(C)c1=O`: the GI50 in test [1] was 0.552 µM; in [2], 0.507 µM; in test [3] it was 0.918 µM; in [10], 1.71 µM. Besides, the TGI in test [1] was more than 56.4 µM; in test [5] it was 5.97 µM; in [7] it was more than 63.1 µM; in test [9], 3.03 µM; in [10], more than 100 µM.

For the molecule `COc1cc2c3c(n(C)c(=O)c2cc1OC)-c1cc2c(cc1/C3=C\CCN)OCO2`, the concentration for 50% growth inhibition (GI50) in test [1] is 0.255 µM; in test [2] it was 0.0397 µM; in test [3] it was 0.272 µM; in test [5], 6.05 µM; in [6], 0.792 µM; in test [7] it was 0.138 µM. Also, the values for the concentration for 50% growth inhibition (GI50) in test [8], in [9] and in test [10] were 0.067 µM, 11.4 µM and less than 0.0104 µM, respectively. The TGI in test [1] was 3.7 µM; in test [2], 1.5 µM; in [3], 2.56 µM; in [5], more than 59.9 µM; in test [6], 6.54 µM; in test [7] it was more than 34.8 µM. The TGI is 5.8 µM in test [8] and 27.7 µM in test [9].

As for `C[C@@H]1CCC2[C@@H](C)[C@@H](OCC(CO[C@H]3OC4O[C@@]5(C)CC[C@H]6[C@H](C)CCC([C@H]3C)[C@@]46OO5)OC(=O)CCC(=O)O)OC3O[C@@]4(C)CC[C@@H]1[C@]32OO4` (stereo partly drawn), the GI50 is less than 0.01 µM in test [1]; less than 0.0479 µM in test [2]; 0.245 µM in test [3]; 16.1 µM in [5]; 0.0583 µM in [6]; less than 0.01 µM in test [7]. Moreover, the GI50 was 0.99 µM in test [8], 13.8 µM in [9] and less than 0.0279 µM in [10]. The concentration for total growth inhibition (TGI) was 14.7 µM in [1]; more than 42.2 µM in test [2]; 6.23 µM in [3]; 36.6 µM in test [5]; 26.3 µM in test [6]; more than 34.9 µM in test [7]. Besides, the TGI in test [8] is 22.1 µM; in test [9] it was 31.3 µM; in test [10] it was more than 47.3 µM.

For the molecule `NS(=O)(=O)c1cc(Br)c(N=Nc2ccc(O)c3ncccc23)c(Br)c1`, the total growth inhibition concentration (TGI) is more than 100 µM in test [1]; more than 100 µM in test [2]; 65.5 µM in test [3]; 73.7 µM in [5]; more than 100 µM in [6]; more than 100 µM in test [7]. Also, the total growth inhibition concentration (TGI) is more than 100 µM in test [8], 67.9 µM in test [9] and 6.74 µM in test [10].

With `CC1(C)C2CCC(=O)C1CC2` (stereo not drawn), the TGI in test [1], in [2], in test [3], in [4], in test [5] and in test [7] was more than 100 µM throughout. The TGI in [8], in test [9] and in test [10] was more than 100 µM throughout.

For `CC(C)C(C)/C=C\C(C)C1CCC2C3=CC=C4CC(O)CCC4(C)C3CCC21C` (stereo not drawn), the concentration for total growth inhibition (TGI) was more than 100 µM in [1]; more than 100 µM in test [2]; more than 70.7 µM in [3]; more than 73.1 µM in test [5]; more than 100 µM in test [6]; more than 55.8 µM in [7]. The TGI was more than 79.5 µM in test [8], more than 100 µM in test [9] and more than 66.9 µM in test [10].

As for `Cc1cc(O)c(/C=N/C(=S)NCc2ccccc2)c(=O)o1`, the TGI in test [1], in [3], in [4], in test [5], in test [6] and in test [7] was more than 100 µM in each case. Also, the concentration for total growth inhibition (TGI) in test [8], in test [9] and in test [10] was more than 100 µM in each case.
